Patent publication US5571521A (priority 1995, dated 1996)
Where two headings read alike, the source gives them in different places.

Tests used:
Pseudomonas aeruginosa = assay: Inhibition of microorganism growth in Miller-Hinton broth (Minimal Inhibitory Concentration); assay type: cell-based; conditions: Table 1, evaluated at 18 hours
Procedure: (§1) For each of the microorganisms listed below a culture was grown in Miller-Hinton broth (24 hour culture), and then diluted at a 1:100 ratio. This diluted culture was then grown for an additional two hours, after which the silver diphenyl hydantoin was added. […]

Candida Albicans = assay: as above; assay type: cell-based; conditions: Table 1, evaluated at 18 hours
Procedure: as §1

[1] = system: Enterococcus (Group D Strep); assay: as above; assay type: cell-based; conditions: Table 1; 20 micrograms/ml; evaluated at 18 hours
Procedure: as §1

Staphloccoccus aereus = assay: as above; assay type: cell-based; conditions: Table 1, evaluated at 18 hours
Procedure: as §1

Klebsiella = assay: as above; assay type: cell-based; conditions: Table 1, evaluated at 18 hours
Procedure: as §1

Phytophthora infestans = assay type: in vivo
[2] = system: pure cultures of organisms; assay: Antibacterial action in pure cultures on blood agar plates; assay type: cell-based
host tissue = assay: Toxicity toward host tissue
Cercospora arachidicola = assay: Control of peanut leafspot on plants; assay type: in vivo; conditions: for Percent Disease Control, Preventive: inoculated 24 hours after application; for Percent Disease Control, Curative: inoculated 24 hours before application
Seratia = assay: Inhibition of microorganism growth in Miller-Hinton broth (Minimal Inhibitory Concentration); assay type: cell-based, Serratia M.; conditions: Table 1, evaluated at 18 hours
Procedure: as §1

Venturia inaequalis = assay: Control of apple scab on plants; assay type: in vivo; conditions: inoculated 24 hours after application
Plasmopara viticola = assay: Control of grape downy mildew on plants; assay type: in vivo; conditions: for Percent Disease Control, Preventive: inoculated 24 hours after application; for Percent Disease Control, Curative: inoculated 24 hours before application

Silver Ammonium Diphenyl Hydantoin [Silver ammonium phenytoin]
inhibition (Minimal Inhibitory Concentration table) (Pseudomonas aeruginosa; 20 micrograms/ml): +
inhibition (Minimal Inhibitory Concentration table) (Pseudomonas aeruginosa; 40 micrograms/ml): +
inhibition (Minimal Inhibitory Concentration table) (Candida Albicans; 20 micrograms/ml): +
inhibition (Minimal Inhibitory Concentration table) (Candida Albicans; 40 micrograms/ml): +
inhibition (Minimal Inhibitory Concentration table) [1]: +
inhibition (Minimal Inhibitory Concentration table) (Staphloccoccus aereus; 20 micrograms/ml): +
inhibition (Minimal Inhibitory Concentration table) (Staphloccoccus aereus; 40 micrograms/ml): +
inhibition (Minimal Inhibitory Concentration table) (Klebsiella; 1 microgram/ml): +
inhibition (Minimal Inhibitory Concentration table) (Klebsiella; 10 micrograms/ml): +
inhibition (Minimal Inhibitory Concentration table) (Klebsiella; 20 micrograms/ml): +
Percent Disease Control (Phytophthora infestans; 5 ppm): 17%
Percent Disease Control (Phytophthora infestans; 20 ppm): 95%
Percent Disease Control (Phytophthora infestans; 100 ppm): 98%
Antibacterial action [2]: Antibacterial action, was also demonstrated
toxicity toward host tissue (host tissue): low toxicity toward host tissue
Percent Disease Control, Preventive (Cercospora arachidicola; 5 ppm): 16%
Percent Disease Control, Curative (Cercospora arachidicola; 5 ppm): 0%
Percent Disease Control, Curative (Cercospora arachidicola; 20 ppm): 0%
Percent Disease Control, Preventive (Cercospora arachidicola; 100 ppm): 78%
Percent Disease Control, Curative (Cercospora arachidicola; 100 ppm): 60%
inhibition (Minimal Inhibitory Concentration table) (Seratia; 10 micrograms/ml): +
inhibition (Minimal Inhibitory Concentration table) (Seratia; 20 micrograms/ml): +
inhibition (Minimal Inhibitory Concentration table) (Seratia; 40 micrograms/ml): +
Percent Disease Control, Preventive (Venturia inaequalis; 5 ppm): 17%
Percent Disease Control, Preventive (Venturia inaequalis; 20 ppm): 95%
Percent Disease Control, Preventive (Venturia inaequalis; 100 ppm): 98%
Percent Disease Control, Preventive (Plasmopara viticola; 5 ppm): 24%
Percent Disease Control, Curative (Plasmopara viticola; 5 ppm): 0%
Percent Disease Control, Preventive (Plasmopara viticola; 20 ppm): 49%
Percent Disease Control, Curative (Plasmopara viticola; 20 ppm): 0%
Percent Disease Control, Preventive (Plasmopara viticola; 100 ppm): 87%
Percent Disease Control, Curative (Plasmopara viticola; 100 ppm): 0%
